Experimental data from publication PMC12217462 (Antimicrobial Agents and Chemotherapy, 2025).
pEC50: −log10 of the molar value. Where “and” joins values, the source holds several entries; their conditions need not be identical. Equal values may be shown once. Read-outs that look alike come from different tables or passages of the source.

Experiments:
Babesia duncani [1] = test: Propidium iodide-based in vitro dose-response assay, B. duncani-infected red blood cells, 384-well plates; format: cell-based; conditions: for EC90: read-out: EC90 (95% CI)
Method: Frozen stocks of B. duncani were provided by the Ben Mamoun lab at Yale University. Culture maintenance was undertaken as described by Singh et al^18 with the following adaptations: Media, completed DMEM/F12 (cDMEM; 20% heat-inactivated fetal bovine serum (Sigma-Aldrich catalogue #12,306 C-500ML), 1 x HT media supplement (Sigma-Aldrich catalogue # H0137-10VL), 1 x L-glutamine (Gibco, catalogue # 25030–081), 1 x antibiotic-antimycotic (Gibco catalogue #15240–062), and 1 x gentamicin (Gibco catalogue #15710–072)), was changed every other day and cultures were kept in a modular incubator gassed with 2% O2, 5% CO2, 93% N2 at 37°C. Passage occurred once a week into fresh blood at 1%–2% parasitemia, 5% hematocrit, and fresh A + blood was obtained once a week from the University of Vermont Medical Center Blood Bank. Four days before the start of drug assay testing, a 10 mL, 5% hematocrit culture was infected to 2% parasitemia with Babesia duncani. One day before the start, the media was changed, and parasitemia was assessed by light microscopy examination of Giemsa-stained thin blood smears with a minimum of 500 red blood cells counted.
Fresh A + blood was washed three times, and a stock 10% hematocrit (HCT) solution of uninfected red cells in completed F12/DMEM media (cDMEM) was created. In a 96-well plate, a pellet from a vigorously growing (≥20% parasitemia) culture was used to create a 10% hematocrit starting well that was then serially diluted five times with the stock 10% hematocrit solution. 25 µL of each serial dilution was transferred to a white, clear-bottom 384-well plate (Falcon, catalog #353963) in triplicate before 25 µL of cDMEM was added to each well, followed by 25 µL of 0.6% Triton-X, 22.5 µM PI in phosphate-buffered solution. The 384-well plate was then shaken for 30 seconds, incubated at 37°C for 1 hour (in the dark), then moved to room temperature in the dark. After 24 hours, the plate was read using a Synergy H1 (BioTek, Winooski, VT) with excitation = 535 nm, emission = 615 nm, sensitivity = 150, and readings taken from the bottom of the wells. Blood smears were made from select undiluted starting wells and stained with Giemsa, and parasitemia was calculated manually from a minimum of 1,000 counted red blood cells. The experiment was repeated twice.
(§1) Prior to the removal of the culture(s) from the modular incubator, fresh A + blood was washed three times with PSG +and compounds (in DMSO stocks) to be tested were prepared in a 96-well plate by serial dilution in cDMEM. Once prepared, the culture(s) were removed from the modular incubator, collected, and washed once with 7 mL of cDMEM. A 10% hematocrit, 5% parasitemia stock in cDMEM was made, and 25 µL aliquoted into a 384-well plate with constant agitation, followed by 25 µL of compound dilution (quadruplicates). The positive growth control was given 25 µL of 0.5% dimethyl sulfoxide (DMSO) in cDMEM (final 0.25% DMSO), and the negative growth control was 25 µL of 50 µM WR99210 (0.5% DMSO) (final 25 µM WR99210, 0.25% DMSO). Plates were incubated as previously described, smears of the positive growth control were made, and the plates were read as previously described. Smears were stained by Giemsa, and a minimum of 1,000 RBCs were counted to determine parasitemia. Dose-response assays were repeated twice.
Pilot dose-response experiments were performed using WR99210 (a DHFR inhibitor with known effect on Babesia duncani), DMSO vehicle, and standard of care drugs atovaquone, clindamycin, quinine, and azithromycin ([20]).
The positive growth control was treated with 25 µL of 0.5% dimethyl sulfoxide (DMSO) in cDMEM (final 0.25% DMSO), and the negative growth control with 25 µL of 50 µM WR99210 (0.5% DMSO) (final 25 µM WR99210, 0.25% DMSO). The plate was incubated for 48 hours and then the plate was stained and read as previously described.

HCT8 cells = test: Cytotoxicity on confluent monolayer HCT8 cells (Promega CellTiter Aqueous One MTS assay); format: cell-based, human; conditions: 48 hours, highest final concentration 100 µM, two replicate experiments
Method: Human HCT8 cells were grown in tissue culture flasks until a confluent monolayer was achieved. […] Cells were incubated with the drug for 48 hours. Promega CellTiter Aqueous One Solution Cell Proliferation Assay (MTS) (PRG3580) was commercially obtained and used to ascertain cell viability, with […] measured using a Biotek microplate reader. Cells incubated in 0.5% DMSO served as a positive growth control and comparator arm.

[2] = cited from earlier work
[3] = parameters: method as in PMID 22553374; conditions: oral, 28-day, once-daily dosing study in humans; cited from earlier work
[4] = Cytotoxicity on confluent monolayer HCT8 cells (Promega CellTiter Aqueous One MTS assay); format: cell-based; conditions: human HCT8 cells
B. divergens = system: B. divergens; parameters: method as in earlier work; conditions: ref 35 (Vanheer et al.); cited from earlier work
Babesia duncani [5] = test: Bug Box single-concentration screen, PI assay in 384-well plates; format: cell-based; conditions: read-out: Inhibition in Bug Box screen (hit definition)
Method: as §1
The Bug Box is a collection of 40 compounds with known antimicrobial and/or bioactivity, which was provided by the Structural Genomics Consortium (SGC)-Toronto. The full list of compounds is available in the supplement. They were obtained in 10 mM aliquots and screened in 384-well plates at 1 µM and 5 µM dilutions with four technical replicates per dilution. Hits were defined as those compounds with at least 80% inhibition. Hits were validated by dose-response curves using commercially obtained compounds with verified purity. The only exception to this was in the verification of compound M7, which is a proprietary compound that could be obtained only from SGC-Toronto. Dose-response curves were created from two independent experiments, each with nine dilutions of the drug.

Babesia duncani [6] = conditions: cited from earlier work
normal cells = system: normal cells; parameters: method as in PMID 19344997; conditions: cited from earlier work
[7] = system: normal cell lines (human mammary and renal epithelial cells, among others); parameters: method as in PMID 19344997; conditions: cited from earlier work
solid tumor cells = system: solid tumor cells; parameters: method as in PMID 19344997; conditions: cited from earlier work
P. falciparum = system: P. falciparum; parameters: method as in PMID 26199860, PMID 33541085; conditions: depending on the strain tested; cited from earlier work
malignant cells = system: malignant cells; parameters: method as in PMID 19344997; conditions: malignant cells treated; cited from earlier work
liquid tumor cell lines = system: liquid tumor cell lines; parameters: method as in PMID 19344997; conditions: cited from earlier work
[8] = B. duncani in vitro, 48 hours of incubation, PI staining, read-out: EC50
[9] = Babesia duncani, Erythrocyte, 48 h, B. duncani in vitro, 48 hours of incubation, PI staining, read-out: EC50
[10] = Babesia duncani, Erythrocyte, 48 h, given in Fig 2 and Fig 3B, nine-point serial dilution, 48 hours, experiments repeated twice, read-out: EC50 (95% CI)
[11] = Babesia duncani, Erythrocyte, given in Fig 2 and Fig 3B, nine-point serial dilution, 48 hours, experiments repeated twice
[12] = Babesia duncani, Erythrocyte, Table 1, B. duncani, two replicate 9-point dilution experiments, combined data, read-out: EC50
[13] = Babesia duncani, Erythrocyte, B. duncani, read-out: In vitro IC90
[14] = Babesia duncani, Erythrocyte, conversion of B. duncani IC90, read-out: Free plasma concentration equivalent to IC90
[15] = screened at 5 µM, four technical replicates
[16] = 12 mg given orally (PO) thrice weekly

CC1(C)N=C(N)N=C(N)N1OCCCOc1cc(Cl)c(Cl)cc1Cl [WR99210]
pEC50 (Babesia duncani [1]; [8]): 8.08 and ~8.08
EC90 (Babesia duncani [1]; given in Fig 2 and Fig 3B, nine-point serial dilution, 48 hours, experiments repeated twice): 14 nM

CC[C@H]1OC(=O)[C@H](C)[C@@H](O[C@H]2C[C@@](C)(OC)[C@@H](O)[C@H](C)O2)[C@H](C)[C@@H](O[C@@H]2O[C@H](C)C[C@H](N(C)C)[C@H]2O)[C@](C)(O)C[C@@H](C)CN(C)[C@H](C)[C@@H](O)[C@]1(C)O [Azithromycin]
pEC50 (Babesia duncani [1]; [9]): 4.91
pEC50 (Babesia duncani [1]; [10]): 4.92
EC90 (Babesia duncani [1]; [11]): 28000 nM

Nc1ccccc1NC(=O)c1ccc(CNc2nccc(-c3cccnc3)n2)cc1 [Mocetinostat]
TC50 HCT8 (HCT8 cells): 56000 nM
pEC50 (Babesia duncani [1]; [12]): 5.60

O=C(CCCCCCC(=O)Nc1ccccc1)NO [Vorinostat]
TC50 HCT8 (µM) (HCT8 cells): No toxicity

CCC[C@@H]1C[C@@H](C(=O)N[C@@H]([C@H]2O[C@H](SC)[C@H](O)[C@@H](O)[C@H]2O)[C@H](C)Cl)N(C)C1 [Clindamycin]
pEC50 (Babesia duncani [1]; [10]): < 4.30
Inhibition of B. duncani growth (in words) (Babesia duncani [1]; dose-response assay, 48 hours): appeared not to inhibit at all

O=C(NO)c1cnc(N2C[C@@H]3[C@H](C2)[C@H]3NCc2ccc3cc(F)ccc3n2)nc1 [Nanatinostat]
TC50 HCT8 (HCT8 cells): 44000 nM
pEC50 (Babesia duncani [1]; [8]): 7.62
pEC50 (Babesia duncani [1]; [9]): 7.64
pEC50 (Babesia duncani [1]; [12]): 7.62
IC90 (Babesia duncani [1]; [13]): 64 nM
IC90 (Babesia duncani [1]; [14]): ~0.025 µg/mL
Cmax ([2]; single 20 mg oral dose): 186 ng/mL
Protocol defined maximum tolerated dose [3]: 80 mg
EC50 at 48 h [4]: 56200 nM

O=C(/C=C/c1ccc(CN(CCO)CCc2c[nH]c3ccccc23)cc1)NO [Dacinostat]
TC50 HCT8 (HCT8 cells): 150000 nM
pEC50 (Babesia duncani [1]; [12]): 7.64
pEC50 (B. divergens): 6.95

O=C(/C=C/c1cccc(S(=O)(=O)Nc2ccccc2)c1)NO [Belinostat]
TC50 HCT8 (HCT8 cells): 90000 nM
pEC50 (Babesia duncani [1]; [12]): 6.82

COc1cc(Cc2cnc(N)nc2N)cc(OC)c1OC [Trimethoprim]
pEC50 (Babesia duncani [1]; [9]): 5.57
EC90 (Babesia duncani [1]; [11]): 4500 nM
inhibition at 5 µM (Babesia duncani [5]; [15]): > 80%

CCN(CC)Cc1ccc2cc(COC(=O)Nc3ccc(C(=O)NO)cc3)ccc2c1 [Givinostat]
TC50 HCT8 (HCT8 cells): 43000 nM
pEC50 (Babesia duncani [1]; [12]): 6.66

c1ccc2c(c1)[I+]c1ccccc1-2 [diphenylene iodonium chloride, Diphenyleneiodonium chloride]
pEC50 (Babesia duncani [1]; [9]): 6.26
EC90 (Babesia duncani [1]; [11]): 1600 nM
inhibition at 5 µM (Babesia duncani [5]; [15]): > 80%

O=C1C(O)=C([C@H]2CC[C@H](c3ccc(Cl)cc3)CC2)C(=O)c2ccccc21 [Atovaquone]
pEC50 (Babesia duncani [6]; Babesia duncani, SYBR green assay, ref 9 (Abraham et al.)): 6.30
pEC50 (Babesia duncani [6]; later Babesia duncani testing, same lab group): 7.14
pEC50 (Babesia duncani [1]; [8]): 6.29
pEC50 (Babesia duncani [1]; [9]): 6.29
pEC50 (Babesia duncani [1]; [10]): 6.28
EC90 (Babesia duncani [1]; [11]): 780 nM
inhibition at 5 µM (Babesia duncani [5]; [15]): > 80%

Cc1[nH]c2ccccc2c1CCNCc1ccc(/C=C/C(=O)NO)cc1 [Panobinostat]
Caspase expression compared with control (normal cells): no increase
LD90 [7]: > 5 µM
TC50 HCT8 (HCT8 cells): 130000 nM
pEC50 (Babesia duncani [1]; [9]): 8.10
pEC50 (Babesia duncani [1]; [12]): 8.08
EC90 (Babesia duncani [1]; [11]): 37 nM
LD90 (solid tumor cells): less than 500 nM
inhibition at 5 µM (Babesia duncani [5]): > 80%
pEC50 (P. falciparum): 7.52 to 8.00
Increase in apoptotic signaling (malignant cells): 10- to 11 fold
pEC50 (B. divergens): 7.57
LD90 (liquid tumor cell lines): less than 100 nM

CCCCc1nc2cc(/C=C/C(=O)NO)ccc2n1CCN(CC)CC [Pracinostat]
TC50 HCT8 (HCT8 cells): 450000 nM
pEC50 (Babesia duncani [1]; [12]): 6.80

Cn1cc(CNCC2CCN(c3ncc(C(=O)NO)cn3)CC2)c2ccccc21 [Quisinostat]
TC50 HCT8 (HCT8 cells): 170000 nM
pEC50 (Babesia duncani [1]; [12]): 8.35
IC90 (Babesia duncani [1]; [13]): 10 nM
IC90 (Babesia duncani [1]; [14]): ~0.004 µg/mL
Area under the curve (AUC) [2, 16]: 18 ng*H/mL
Peak plasma concentration (Cmax) [2, 16]: 1.9 ng/mL
pEC50 (P. falciparum): 8.15 to 8.30
pEC50 (B. divergens): 8.34

Nc1ccccc1NC(=O)c1ccc(CNC(=O)OCc2cccnc2)cc1 [Entinostat]
TC50 HCT8 (HCT8 cells): 110000 nM
pEC50 (Babesia duncani [1]; [12]): 4.64

C=C[C@H]1C[N@@]2CC[C@H]1C[C@H]2[C@H](O)c1ccnc2ccc(OC)cc12 [Quinine]
pEC50 (Babesia duncani [1]; [9]): 4.76
pEC50 (Babesia duncani [1]; [10]): 4.74
EC90 (Babesia duncani [1]; [11]): 33000 nM
